Data published in paper PMC4596527 (Bioorganic & medicinal chemistry, 2010).
Marks after values point to notes of the source that are not given here.

Tests used:
[1] = system: Chinese hamster ovary (CHO) cells; experiment: MTT cell viability, protection against H2O2-mediated cytotoxicity in CHO cells; conditions: for Cytotoxicity CHO (%): 50 μM compound for 2 h, then 1mM H2O2 for 1 h, MTT
[2] = Superoxide radical scavenging by EPR spin trapping; conditions: PBS pH 7.4
[3] = system: human aortic vascular smooth muscle cells (HSMCs); experiment: MTT cell viability, protection against H2O2-mediated cytotoxicity in HSMC cells; conditions: 50 μM compound for 2 h, then 1mM H2O2 for 1 h
reperfused myocardium = conditions: in vivo I/R injury; cited from earlier work
myocite = conditions: exposure to hypoxantine and xantine oxidase; cited from earlier work
[4] = system: Langendorff-perfused heart; conditions: attributed to activation of Akt and ERK1/2 pathways; cited from earlier work
[5] = 1-mM compound in presence of 1-mM DEPMPO
[6] = 100-μM compound in presence of 1-mM DEPMPO

| Compound | Cytotoxicity CHO (%) [1] [%] | Superoxide Scavenging (%) [2, 5] | Cytotoxicity HSMC (%) [3] [%] | protection of CHO cells against H2O2 compared with verapamil (in words) [1] | further results |
| --- | --- | --- | --- | --- | --- |
| COc1ccc(CCN(CCCC(C#N)(c2ccc(OC)c(OC)c2)C(C)C)CC2=CC(C)(C)NC(C)(C)C2)cc1OC (stereo not shown) [Compound 24A, 2-(3,4-Dimethoxyphenyl)-5-[[2-(3,4-dimethoxyphenyl)ethyl]-(2,2,6,6-tetramethyl-1,2,3,6-tetrahydropyridin-4-ylmethyl)amino]-2-isopropyl-pentanenitrile] | 95.3 ± 0.5 | 68.2 ± 7.6 ^a % | 91.1 ± 0.5 | – | – |
| COc1ccc(CCN(C)CCCC(CNC(=O)C2=CC(C)(C)N(O)C(C)(C)C2)(c2ccc(OC)c(OC)c2)C(C)C)cc1OC.Cl (stereo not shown) [Compound 16B] | – | – | – | good protection | Akt and Bcl-2 levels in reperfused myocardium (reperfused myocardium): enhanced; nitric oxide generation in reperfused myocardium (reperfused myocardium): increased; superoxide production in reperfused myocardium (reperfused myocardium): markedly attenuated |
| COc1ccc(CCN(CCCC(C#N)(c2ccc(OC)c(OC)c2)C(C)C)CC2=CC(C)(C)N(O)C2(C)C)cc1OC.Cl (stereo not shown) [Compound 23B, 2-(3,4-Dimethoxyphenyl)-5-[[2-(3,4-dimethoxyphenyl)ethyl]-(1-hydroxy-2,2,5,5-tetramethyl-2,5-dihydro-1H-pyrrol-3-ylmethyl)-amino]-2-isopropyl-pentanenitrile HCl Salt] | 66.7 ± 3.0 | 100% | 58.6 ± 4.8 | – | Superoxide Scavenging (%) [2, 6]: 78.1±2.6% |
| COc1ccc(CCN(C)CCCC(CNC(=O)C2=CC(C)(C)N(O)C2(C)C)(c2ccc(OC)c(OC)c2)C(C)C)cc1OC.Cl (stereo not shown) [Compound 12B] | – | – | – | good protection | – |
| COc1ccc(CCN(CCCC(C#N)(c2ccc(OC)c(OC)c2)C(C)C)CC2=CC(C)(C)N(O)C(C)(C)C2)cc1OC.Cl (stereo not shown) [Compound 24B, 2-(3,4-Dimethoxyphenyl)-5-[[2-(3,4-dimethoxyphenyl)ethyl]-(1-hydroxy-2,2,6,6-tetramethyl-1,2,3,6-tetrahydropyridin-4-ylmethyl)amino]-2-isopropyl-pentanenitrile HCl Salt] | 64.8 ± 5.6 | 100% | 57.2 ± 5.4 | – | Superoxide Scavenging (%) [2, 6]: 82.5±2.7% |
| COc1ccc(CCN(CCCC(C#N)(c2ccc(OC)c(OC)c2)C(C)C)CC2=CC(C)(C)NC2(C)C)cc1OC (stereo not shown) [Compound 23A, 2-(3,4-Dimethoxyphenyl)-5-[[2-(3,4-dimethoxyphenyl)ethyl]-(2,2,5,5-tetramethyl-2,5-dihydro-1H-pyrrol-3-ylmethyl)-amino]-2-isopropyl-pentanenitrile] | 74.0 ± 3.4 | 70.6 ± 3.3 ^a % | 64.8 ± 7.1 | – | – |
| [4-Cyano-4-(3,4-dimethoxyphenyl)-5-methylhexyl]-[2-(3,4-dimethoxyphenyl)ethyl]-(1-oxyl-2,2,5,5-tetramethyl-2,5-dihydro-1H-pyrrol-3-ylmethyl)methylammonium Iodide Salt Radical [Compound 25] | – | 73.8 ± 3.0 ^a % | – | good protection | – |
| [4-Cyano-4-(3,4-dimethoxyphenyl)-5-methylhexyl]-[2-(3,4-dimethoxyphenyl)ethyl]-(1-oxyl-2,2,6,6-tetramethyl-1,2,3,6-tetrahydropyridin-4-ylmethyl)methylammonium Iodide Salt Radical [Compound 26] | – | 48.1 ± 2.7 ^a % | – | – | – |
| COc1ccc(CCN(C)CCCC(C#N)(c2ccc(OC)c(OC)c2)C(C)C)cc1OC (stereo not shown) [Compound 1, verapamil] | – | – | – | – | myocite viability (myocite): preserved; oxidative damage during ischemia and reperfusion [4]: decreased oxidative damage |
| COc1ccc(CCN(C)CCCC(CNC(=O)C2CC(C)(C)N(O)C(C)(C)C2)(c2ccc(OC)c(OC)c2)C(C)C)cc1OC.Cl (stereo not shown) [Compound 17B] | – | – | – | good protection | – |
